The values below come from PMC9011347, “Small-Molecule Inhibitors Targeting Lipolysis in Human Adipocytes” (Journal of the American Chemical Society, 2022).

Each structure is given as a SMILES string.

In one test the test system is pig ATGL. Kind of test: TAG hydrolase assay, Expi293 lysates expressing ATGL orthologue. In kind it is biochemical. To be noted: NG-497 50 μM. The text has this:
(§1) We previously developed Atglistatin (Ai), a selective inhibitor of mouse ATGL,[31],[32] which is ineffective against human ATGL.[17] Ai acts as a competitive inhibitor targeting the minimal active domain of ATGL ranging from aa 1–254.[33] This domain is highly conserved in different mammalian species (∼90% identity, Table 1) and comprises the patatin-like domain, eponymous for all members of the patatin-like phospholipase domain-containing (PNPLA) protein family.[34] We first investigated the species selectivity of Ai by performing TAG hydrolase assays[35] with lysates from Expi293 cells expressing ATGL orthologues of different species. The activity of ATGL is strongly stimulated by the co-activator protein comparative gene identification-58 (CGI-58, also known as α/β hydrolase domain containing 5, ABHD5)[36] and can be suppressed by the inhibitory protein G0/G1 switch 2 (G0S2).[37] We therefore determined ATGL activity in the presence and absence of mouse CGI-58, mouse G0S2, and Ai. As shown in Figure 1a–i, all ATGL orthologues were expressed, enzymatically active, stimulated by mouse CGI-58, and inactivated by mouse G0S2. Ai inhibited mouse (Figure 1a), rat (Figure 1b), goat (Figure 1c), dog (Figure 1e), and marmoset ATGL (Figure 1f), but not pig (Figure 1d), rhesus monkey (Figure 1g), or human ATGL (Figure 1h).
(§2) Experimental details, materials, and methods
(§3) Expression of recombinant ATGL constructs and preparation of cell lysates. Expi293 cells were cultivated in Expi293 Expression Medium (GIBCO, Thermo Fisher Scientific, Waltham, USA) at standard conditions (37°C, 5% CO2, 95% humidified atmosphere, 125 rpm). DNA constructs containing ATGL from different species and chimeric ATGL variants in pcDNA3.1(+)myc-His C Vector were obtained from BioCat GmbH (Heidelberg, Germany). Cells were transfected with ExpiFectamine293 Transfection Kit (GIBCO) in Opti-Mem reduced serum medium (GIBCO) according to the manufacturer’s instructions. After 48 h, cells were harvested by centrifugation and washed three times with PBS. Cells were disrupted in buffer A (0.25 M sucrose, 1 mM EDTA, 1 mM dithiothreitol, 20µg/ml leupeptin, 2 µg/ml antipain, 1 µg/ml pepstatin, pH 7.0) by sonication (Virsonic 475, Virtis, Gardiner, USA). Nuclei and debris were removed by centrifugation at 1,000 g and 4°C for 10 min. Protein concentrations were determined using Bio-Rad protein assay (Bio-Rad 785, Bio-Rad Laboratories, Munich, Germany) using BSA as standard.
(§4) Expression and purification of mouse CGI-58. CGI-58 was expressed and purified as described 1. In brief, the coding sequence of mouse Cgi-58 was cloned into pHis-Sumo and co-transformed with the plasmid pTf16 expressing the chaperone Tig into E. coli BL21(DE3). Cells were cultured overnight at 37°C and 180 rpm in the presence of 40 µg/ml kanamycin and 34 µg/ml chloramphenicol. Thereafter, cells were transferred into fresh LB medium, grown until OD600 of 0.6, and expression was induced by the addition of 0.5 mM IPTG. After overnight incubation at 30°C, cells were harvested at 4,500 x g and 4°C for 20 min, washed in 1x PBS, and resuspended in lysis buffer (20 mM Tris/HCl pH 7.8, 300 mM NaCl, 30 mM imidazole, 0.1% IGEPAL CA-630, 3.5 mM β-mercaptoethanol, 20 µg/ml leupeptin, 2 µg/ml antipain and 1 µg/ml pepstatin). Cells were incubated with 1 mg/ml lysozyme at 4°C for 20 min, disrupted by sonication, and lysates were centrifuged at 30,000 x g and 4°C for 40 min. His-CGI-58 was purified from the supernatant using an ÄKTA pure system (Cytiva, Uppsala, Sweden) equipped with a 5 ml HisTrap […]
(§5) Expression and purification of mouse G0S2. Chemically competent E. coli ArcticExpress (DE3) cells were transformed with the pST50-SMT3-TEV-mG0S2-His expression plasmid, plated on LB agar plates containing 100 ampicillin, and incubated […] overnight at 37°C. The next day, 10 ml LB medium supplemented with 100 μg/ml ampicillin, 20 μg/ml gentamycin and 2% glucose were inoculated with a single colony and incubated overnight at 37°C. […]

Another test relates to rhesus monkey ATGL. The description is as above. Type of test: biochemical. As to conditions: NG-497 50 μM.
Description: as §1, §2, §3, §4, §5

With `CCOc1ccc(-c2cc(OC)cc(C(=O)OC(C)C)n2)cc1` [NG-497], the “reduction in TAG hydrolase activity” value in the test on pig ATGL is “less than 20%”. In addition, the “inhibition of ATGL orthologue” value in the test with rhesus monkey ATGL was “inactivates”.
